Laboratory results taken from publication PMC7139549, “TLD1433 Photosensitizer Inhibits Conjunctival Melanoma Cells in Zebrafish Ectopic and Orthotopic Tumour Models” (Cancers, 2020).
Like-named read-outs stand apart in the source and are kept apart here.

Legend:
Type in all cases: cell-based, Human
eye melanoma cells = assay: SRB cell viability assay, eye melanoma cells
Experimental: (§1) TLD1433 is known to generate reactive oxygen species (ROS) with high quantum efficacy in many cancer cell lines. However, there is no report of the in vitro toxicity of this compound in eye melanoma (UM) cell lines. We determined the cell viability of three conjunctival melanoma cell lines (CRMM1, CRMM2 and CM2005.1), and three uveal melanoma cell lines (OMM1, OMM2.5, MEL270) in the presence of TLD1433, both in the dark or under green light irradiation (21 mW/cm^2, 19 J/cm^2, 520 nm, 15 min), and compared this viability to epidermoid carcinoma A431 and cutaneous melanoma A375 cell lines under the same conditions. […] The phototoxicity index (PI), defined as the ratio of the dark EC50 to the light EC50, was also calculated and represents the amplification of TLD1433 activity with a light trigger. […]
(§2) At day 0, cells were detached using 1mL of trypsin, resuspended in 4 mL of media and transferred to a 15 mL corning falcon tube. Cells were counted using trypan blue and BioRad® TC20™ automated cell counter (Figure 11). Dilutions of 6000 (CRMM1), 6000 (CRMM2), 8000 (CM2005.1), 6000 (OMM1), 6000 (OMM2.5), 6000 (MEL270) 8000 (A431), and 4000 (A375) cells/well were calculated from each cell suspension at a final volume of 6 mL using the following formula: Vc=(Vt×10C)/Lc where Vt = total volume of solution, C = number of cells per well/per 100 μL and Lc = live cells count (cells/mL). […]

[1] = test system: CRMM1 conjunctival melanoma cell line; assay: SRB cell viability assay, CRMM1
Experimental: (§3) TLD1433 is known to generate reactive oxygen species (ROS) with high quantum efficacy in many cancer cell lines. However, there is no report of the in vitro toxicity of this compound in eye melanoma (UM) cell lines. We determined the cell viability of three conjunctival melanoma cell lines (CRMM1, CRMM2 and CM2005.1), and three uveal melanoma cell lines (OMM1, OMM2.5, MEL270) in the presence of TLD1433, both in the dark or under green light irradiation (21 mW/cm^2, 19 J/cm^2, 520 nm, 15 min), and compared this viability to epidermoid carcinoma A431 and cutaneous melanoma A375 cell lines under the same conditions. The protocol used was based on previous work from the Bonnet group, and differed slightly from recommendations from McFarland et al.. […] The effective concentration (EC50) values, i.e., the concentration required to reduce cell viability by 50% compared to untreated wells, were assessed by fitting the dose-response curves with a Hill equation. The phototoxicity index (PI), defined as the ratio of the dark EC50 to the light EC50, was also calculated and represents the amplification of TLD1433 activity with a light trigger. […]
(§4) Figure 2 Cell viability after TLD1433 treatment of eight tumour cell lines (CRMM1, CRMM2, CM2005.1, OMM1, OMM2.5, MEL270, A431, A375). […] The absorbance of Sulforhodamine B in solution was measured at 520 nm. […]
(§5) At day 0, cells were detached using 1mL of trypsin, resuspended in 4 mL of media and transferred to a 15 mL corning falcon tube. Cells were counted using trypan blue and BioRad® TC20™ automated cell counter (Figure 11). Dilutions of 6000 (CRMM1), 6000 (CRMM2), 8000 (CM2005.1), 6000 (OMM1), 6000 (OMM2.5), 6000 (MEL270) 8000 (A431), and 4000 (A375) cells/well were calculated from each cell suspension at a final volume of 6 mL using the following formula: Vc=(Vt×10C)/Lc where Vt = total volume of solution, C = number of cells per well/per 100 μL and Lc = live cells count (cells/mL). […] Next day, the dye was dissolved using Tri-base (0.25%) and absorbance of SRB at 510 nm was recorded from each well using a Tecan plate reader. […]

CM cells = assay: SRB cell viability assay, CM cells; conditions: dark EC50 to light EC50
Experimental: as §1, §2

[2] = test system: OMM1 uveal melanoma cell line; assay: SRB cell viability assay, OMM1
Experimental: as §3, §4, §5

Structure (SMILES): Cc1ccnc(-c2cc(C)ccn2)c1.Cc1ccnc(-c2cc(C)ccn2)c1.[Cl-].[Cl-].[Ru+2].c1csc(-c2ccc(-c3ccc(-c4nc5c6cccnc6c6ncccc6c5[nH]4)s3)s2)c1 [TLD1433]
- EC50 (eye melanoma cells; dark, read-out: EC50 (dark toxicity)): ~1 µM
- EC50 upon light activation (in words) (eye melanoma cells; green light 19 J/cm^2): in the nanomolar regime
- EC50 ([1]; CRMM1, dark, 24 h treatment, SRB, read-out: EC50, dark): 0.84 µM
- EC50 ([1]; CRMM1, green light 520 nm, 15 min, 21 mW/cm^2, 19 J.cm^−2, DLI 24 h, read-out: EC50,light): 0.0059 µM
- PI (photo index) ([1]; CRMM1, ratio of dark and light EC50, 19 J.cm^−2 green light): 140
- PI (CM cells): > 140
- EC50 ([2]; OMM1, dark, 24 h treatment, SRB, read-out: EC50, dark): 1.4 µM
- EC50 ([2]; OMM1, green light 520 nm, 15 min, 21 mW/cm^2, 19 J.cm^−2, DLI 24 h, read-out: EC50,light): 0.014 µM
- PI (photo index) ([2]; OMM1, ratio of dark and light EC50, 19 J.cm^−2 green light): 100
